Test system: R. pulicis
Format: cell-based, Rickettsia pulicis

SMILES: CO[C@H]1/C=C/O[C@@]2(C)Oc3c(C)c(O)c4c(O)c(c(/C=N/N5CCN(C)CC5)c(O)c4c3C2=O)NC(=O)/C(C)=C\C=C\[C@H](C)[C@H](O)[C@@H](C)[C@@H](O)[C@@H](C)[C@H](OC(C)=O)[C@@H]1C [Rifampin]
- inhibitory at single concentration tested: inhibitory

From patent US20030003508A1 (priority 1999, published 2003)
